Test results as given in patent US8778617B2, “Method for determining the binding constant of high affinity compounds” (Hoffmann-La Roche Inc., priority 2010, dated 2014).

Tests used:
[1] = Equilibrium dialysis, binding to combination of PVP25 and beta-hydroxypropyl-cyclodextrin as sink compound; details: PVP 25 4% (m/V) + β-Hydroxypropyl-cyclodextrin 4% (m/V); membrane cut off 1 kDa; test compound 0.02 mM to 0.6 mM
Description: (§1) A reusable 96-well Micro-Equilibrium dialysis Device 96 chamber was used for the following experiments. The chamber system consists of 10 Teflon™ bars, wherein semipermeable membranes (see 1.2 Membranes) were placed between two Teflon™ bars each to form two compartment of each well.
(§2) 2) The protein chamber (chamber 2) is filled with buffer and the other excipients to the final volume of approximately 100-150 ul. It is important that on each side the volume is exactly the same.
(§3) with PVP and PVP in combination with cyclodextrines as sink compound in chamber the volume was 100 μl. (PVP 15 4% (m/V), PVP 25 4% (m/V), PVP 25 4% (m/V)+β-Hydroxypropyl-cyclodextrin 4% (m/V))
(§4) 5) The chamber system was shaken for 1 hour, then incubated over night (approximately 12 hours). Long duration shaking should be avoided due to the risk of higher evaporation caused by the generated heat.
(§5) 6) After reaching the equilibrium, a sample from the sink chamber (reference, binding study II with sink compound and HSA), or from the protein chamber (reference, binding study I with sink compound alone) was transferred to a half-area UV-plate and analyzed spectrometrically (spectra max, 190 Plate Reader; 250-500 nm) or it was analysed by HPLC.

[2] = Equilibrium dialysis, binding to beta-hydroxypropyl-cyclodextrine as sink compound; details: membrane cut off 1 kDa; for fb(%) excipient binding level: Warfarin 0.01 mM to 0.4 mM, UV; for Average Binding [%] to beta-hydroxypropyl-cyclodextrine: beta-hydroxypropyl-cyclodextrine 10% (m/V), test compound 0.02 mM-0.06 mM, DMSO 6% (V/V)
Description: A reusable 96-well Micro-Equilibrium dialysis Device 96 chamber was used for the following experiments. The chamber system consists of 10 Teflon™ bars, wherein semipermeable membranes (see 1.2 Membranes) were placed between two Teflon™ bars each to form two compartment of each well. 2) The protein chamber (chamber 2) is filled with buffer and the other excipients to the final volume of approximately 100-150 ul. […] 5) The chamber system was shaken for 1 hour, then incubated over night (approximately 12 hours). Long duration shaking should be avoided due to the risk of higher evaporation caused by the generated heat.

[3] = Equilibrium dialysis, excipient binding to gamma-cyclodextrin; details: γ-Cyclodextrin 2.5% (m/V); membrane cut off 1 kDa; Warfarin 0.01 mM to 0.4 mM; UV
Description: as §1, §2, §4, §5

[4] = biological target: human serum albumin (HSA) (Homo sapiens, UniProt P02768); assay: Assay with PVP 25 (sink compound) and human serum albumin, new approach; assay type: in vitro ADME; details: pH 7.4, PVP 25 4.0% (m/V) as sink compound, HSA 60 mM, membrane MWCO 3.5 kDa, test compound 0.02 mM to 0.6 mM, HPLC; for fraction bound to HSA: read-out: fu (%) newApproach (binding level to HSA)
human serum albumin (HSA), sequence (P02768 25-609): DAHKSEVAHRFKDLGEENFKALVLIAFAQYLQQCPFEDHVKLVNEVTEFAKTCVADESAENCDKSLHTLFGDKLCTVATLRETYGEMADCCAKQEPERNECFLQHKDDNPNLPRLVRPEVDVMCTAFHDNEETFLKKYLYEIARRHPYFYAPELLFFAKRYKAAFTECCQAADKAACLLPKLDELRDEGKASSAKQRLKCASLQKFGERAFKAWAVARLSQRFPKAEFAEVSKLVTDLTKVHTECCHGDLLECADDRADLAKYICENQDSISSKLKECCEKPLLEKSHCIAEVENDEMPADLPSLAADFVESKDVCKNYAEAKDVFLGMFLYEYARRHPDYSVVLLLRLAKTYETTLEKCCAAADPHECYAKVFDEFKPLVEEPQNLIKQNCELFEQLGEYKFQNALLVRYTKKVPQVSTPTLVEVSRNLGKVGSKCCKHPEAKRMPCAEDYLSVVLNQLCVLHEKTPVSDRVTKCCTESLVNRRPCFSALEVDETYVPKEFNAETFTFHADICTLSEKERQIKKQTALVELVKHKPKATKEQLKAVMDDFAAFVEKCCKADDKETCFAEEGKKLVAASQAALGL
Description: as §2
End concentration of HSA: 60 mM
as §4, §5
The distribution coefficient and the binding constant can be calculated with binding studies. The binding of drugs to HSA is a reversible process which can be described by the following equilibrium [Du]+[HSA]·[D·HSA]
The binding constant KHSA can be converted to the fraction unbound fu with the following formula derived from the law of mass:
The binding constant to HSA (KHSA) (2) can be calculated from the combination of partition coefficients to PVP (DCPVP) (3) and to HSA in the presence of PVP (DCHSA′) (3). KHSA=DCPVP·DCHSA′ (2)
Vtotal is total volume in the dialysis chamber (200 μl) and VHSA and VPVP are the volumes of HSA and PVP 25, which can be calculated from the density and the weighted sample
Analytics was carried out on an HPLC-system (Agilent 1100). The separations were performed on a RP column (Chromolith flash, RP18e, 4.6×25 mm). Samples were eluted with gradient of water with 0.05% formic acid (A) and Acetonitril (B).

[5] = tested on: plasma protein; details: conventional methods, literature values; cited from earlier work
[6] = Equilibrium dialysis, binding to PVP 15; details: PVP 15 40 g/l; drugs 0.02-0.6 mM
Description: as §1, §2, §3, §4, §5
(§6) Concentrations of the drugs: 0.02-0.6 mM
(§7) Amounts of PVP 15 and PVP25: each 40 g/l

[7] = Equilibrium dialysis, binding to PVP 25; details: PVP25 40 g/l; drugs 0.02-0.6 mM
Description: as §1, §2, §3, §4, §5, §6, §7

[8] = tested on: plasma protein; assay: Protein binding determined with conventional methods (literature values / inhouse); assay type: in vitro ADME; details: read-out: fu (%) Literature (binding level)
Source text: The determined binding levels of the test compound in example 6 (“new approach”) were compared with the values determined with conventional methods (literature values).

## CC(=O)CC(c1ccccc1)c1c(O)c2ccccc2oc1=O (racemic) [Warfarin, (RS)-4-hydroxy-3-(3-oxo-1-phenylbutyl)-2H-chromen-2-one]
[1]
  fb(%) excipient binding level: 27.9%
[2]; β-Hydroxypropyl-cyclodextrin 1% (m/V)
  fb(%) excipient binding level: 6.8%
[2]; β-Hydroxypropyl-cyclodextrin 10% (m/V)
  fb(%) excipient binding level: 27.6%
[3]
  fb(%) excipient binding level: 6.0%

## NC(=O)N1c2ccccc2C=Cc2ccccc21 [Carbamazepin]
[2]
  Average Binding [%] to beta-hydroxypropyl-cyclodextrine: 31.3%

## CO/N=C(\C(=O)N[C@@H]1C(=O)N2C(C(=O)O)=C(CSc3nc(=O)c(=O)[nH]n3C)CS[C@H]12)c1csc(N)n1 [Ceftriaxone]
[2]
  Average Binding [%] to beta-hydroxypropyl-cyclodextrine: 14.2%

## CN(C)CCCN1c2ccccc2Sc2ccc(Cl)cc21 [Chlorpromazine, 3-(2-chloro-10H-phenothiazin-10-yl)-N,N-dimethyl-propan-1-amine]
[4]
  fraction bound to HSA: 0.994
[5]
  fu (%) Literature (binding level): 97.80%

## O=C(O)Cc1ccccc1Nc1c(Cl)cccc1Cl [Diclofenac, 2-(2-(2,6-dichlorophenylamino)phenyl)acetic acid]
[6]
  Average binding [%] to PVP15: 21.7%
[2]
  Average Binding [%] to beta-hydroxypropyl-cyclodextrine: 23.1%
[7]
  Average binding [%] to PVP25: 46.4%

## NS(=O)(=O)c1cc(C(=O)O)c(NCc2ccco2)cc1Cl [Furosemid, 4-chloro-2-(furan-2-ylmethylamino)-5-sulfamoylbenzoic acid]
[6]
  Average binding [%] to PVP15: 37.0%
[7]
  Average binding [%] to PVP25: 49.4%

## COc1ccc(Cl)cc1C(=O)NCCc1ccc(S(=O)(=O)NC(=O)NC2CCCCC2)cc1 [Glibenclamid, 5-chloro-N-(4-[N-(cyclohexylcarbamoyl)sulfamoyl]phenethyl)-2-methoxybenzamide]
[4]
  fraction bound to HSA: 1
[8]
  fraction bound: 0.997

## CN1/C(=C(/O)Nc2ccccn2)C(=O)c2ccccc2S1(=O)=O [Piroxicame, (8E)-8-[hydroxy-(pyridin-2-ylamino)methylidene]-9-methyl-10,10-dioxo-10λ6-thia-9-azabicyclo[4.4.0]deca-1,3,5-trien-7-one]
[4]
  fraction bound: 99.6%
[5]
  fu (%) Literature (binding level): 99.0%

## C=C[C@H]1C[N@@]2CC[C@H]1C[C@H]2[C@H](O)c1ccnc2ccc(OC)cc12 [Quinine]
[2]
  Average Binding [%] to beta-hydroxypropyl-cyclodextrine: 21.6%
